# Data from US20050020542A1, “Method of modulating sodium ion absorption in epithelial cells” (priority 2001, published 2005).
# Entries after “also recorded” stand apart in the source; their conditions may differ.
# What was measured:
# CFHNE monolayers = assay: Monolayer resistance / tight junction integrity in Ussing chambers (toxicity); format: cell-based, human
# Method: 3. In addition, delayed toxic effects could result in long-term damage of the monolayers that would not become apparent for several hours. Therefore, it is of interest to note whether the resistance or conductance was affected during this period. A reduction in resistance in monolayers treated with compound could indicate weakened tight junctions.
# […] […] As a control, the effect of pretreatment with phosphate-propionoxymethyl ester (26.6 μM) was tested using the same protocol.
# [1] = tested on: calcium-activated Cl- channel; assay: Perforated patch whole cell recording of Cl- current; format: cell-based, human
# Method: In FIGS. 4A and 4B, the response to 10 μM INO-E2 is contrasted with the response to ATP.
# human CF nasal epithelia = assay: Blue Dextran volume transport assay (fluid absorption); format: cell-based
# Excerpt: In normal human airway epithelia, Na^+ and Cl^− currents (CFTR and Ca^2+-activated Cl^− currents) contribute to airway surface liquid (ASL) fluid volume regulation depending on signaling equilibria. In contrast, in human CF airway epithelia, Na^+ currents through ENaC dominate basal ASL volume regulation accompanied by a relatively minor contribution through Ca^2+-activated Cl^− currents. The combination of enhanced ENaC currents and transient Ca^2+-activated Cl^− currents in CF result in an inadequate hydration of the ASL and reduction of mucociliary clearance. Since INO-E2 reduces Na^+ transport through ENaC, we hypothesized that INO-E2 would have a functional effect, similar to amiloride, and inhibit fluid absorption. To test this hypothesis, we exposed well differentiated monolayer cultures of CF nasal epithelia to an apically applied buffer containing INO-E2 and a known concentration of the non-permeable molecule Blue Dextran (BD). The resulting reduction in the ability of these monolayers to concentrate BD was taken as a functional indicator of INO-E2's involvement in the inhibition of ENaC.
# HEPES Modified Ringer's Buffer (HMRB) was used for these assays. HMRB was sterilized by positive pressure filtration through a 0.2 um syringe tip filter (Gelman acrodisc). The BD stock solution was aseptically prepared with sterile buffer (2 mg BD/ml buffer). Compounds to be tested were solubilized in sterile HMRB containing 1 μM BD (final concentration of vehicle is 0.1% (1:1, DMSO+DMSO containing 5% pluronic-F127). […] A standard concentration curve was obtained by determining the optical densities of a serial dilution of 10 μM Blue Dextran in HMRB placed in a Falcon 3027 96-well plate. The optical density of BD in the solution was obtained by analysis at 660 nm in a Packard Spectracount. Standards and samples were analyzed on the same plate. 50 μl volumes were used for all samples and standards. The [BD] of the samples was determined by extrapolation from the standard curve using the Packard I-Smart software. The increase in [BD] from the starting value of 1 μM was taken to be an indication of the magnitude of volume absorption occurring across the monolayer. The rate of absorption was calculated by dividing the change in volume by the duration of the experiment. This value was normalized to a surface area of 1 cm^2, to give μl·cm^2−1·hr^−1. To address evaporative loss, which would appear in the data as artificially high absorptive rates, dummy membranes were constructed by attaching a thin Sylgard sheet to snapwells/transwells with silicon sealant. These dummy membranes were used in parallel with the epithelial monolayers to assess evaporative loss for each experiment.
# [2] = tested on: Ca2+ activated Cl- secretion; assay: ATP-stimulated Cl- secretion after amiloride in Ussing chambers; format: cell-based, human; conditions: repeated exposure 1-2.5 μM over 96 hours, then amiloride, then apical ATP
# Method: FIG. 3 is a graph showing the effect of repeated exposure to INO-E2 on physiological parameters in CFHNE. 2.5 μM INO-E2 was added every 24 hrs for 4 days. Effects on Isc in CFHNE, passage 2 are depicted. Every 24 hrs medium in the basolateral compartment was exchanged with fresh medium containing 2.5 μM INO-E2. On the 4th day the monolayers were mounted in Ussing chambers and basal Isc, conductance and resistance measured. After a stable baseline was reached, amiloride was added to determine the amiloride-inhibitable-Isc. Under these conditions, subsequent apical addition of the Ca^2+-mobilizing agent, ATP, allows Cl^− secretion to be examined in isolation.
# The therapeutic potential of INO-E2 was investigated by using protocols that model in vivo treatments. In this experiment the effects of repeated exposure to a low dose of INO-E2 (2.5 μM) on basal Isc and responsiveness to calcium-mobilizing agonists (ATP) in human nasal CF epithelia (CFHNE) was tested. […] T here was no apparent difference in responses to compound added to the apical or basolateral compartment. This series of experiments provides information that useful for deriving the optimal therapeutic dose and delivery schedule for in vivo tests.
structure (smiles),measurement,setting,value
"CCCCCCCCOC1C(OC(=O)CCC)C(OP(=O)(OCOC(=O)CC)OCOC(=O)CC)C(OP(=O)(OCOC(=O)CC)OCOC(=O)CC)C(OP(=O)(OCOC(=O)CC)OCOC(=O)CC)C1OP(=O)(OCOC(=O)CC)OCOC(=O)CC (centres unmarked) [INO-E2, 2-O-butyryl-1-O-octyl-myo-inositol 3,4,5,6-tetrakisphosphate octakis (propionoxymethyl) ester]",toxicity on repeated exposure (deterioration of tight junctions),CFHNE monolayers; 1-2.5 μM repeatedly over 96 hours,no indication of toxicity; also recorded: No evidence of toxicity
same,toxic effects as evaluated by tight junction integrity,"CFHNE monolayers; 2 hr exposure 24 hrs before, up to highest concentration 200 μM",no apparent toxic effects
same,integrity of the monolayers at high concentration,CFHNE monolayers; concentrations in 100 fold excess of the acute EC50,no decrement in the integrity of the monolayers
same,monolayer resistance,"CFHNE monolayers; measured shortly after mounting, highest concentration 200 μM",increased
same,time to appearance of Cl- currents after addition,"[1]; 10 μM, CFHNE cell, perforated patch",5 to 15 min
same,increase in chloride current,"[1]; 5 and 10 μM, other perforated patch recordings, data not shown",low to intermediate increase
same,change of potency on fluid absorption with repeat administration,"human CF nasal epithelia; 2 hours each day for 8 days at 0.1 μM or 1 μM, n=6",enhancement of compound potency
same,potency compared with amiloride in fluid secretion assay,human CF nasal epithelia; comparison 100 μM amiloride,as potent as amiloride
same,duration of effects compared with amiloride,human CF nasal epithelia; conditions that model therapeutic exposure times,longer-lasting
same,duration of effect on fluid secretion following a brief (pulsed) exposure,"human CF nasal epithelia; pulsed exposure, FIG. 17",prolonged effects
same,response to ATP (Ca2+ activated Cl- secretion) in treated monolayers,[2],augments subsequent stimulation of Ca^2+ activated Cl^− secretion; also recorded: elevated
